The target in this assay is human SSTR2 (Homo sapiens (Human), UniProt P30874). Description: Human SSTR2 intracellular cAMP functional assay for agonists (HTRF). The format is cell-based. The procedure, abridged: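 Cells bearing human SSTR2 exposed to compound for 20 minutes at 37 °C; after lysis, cAMP measured by time-resolved fluorescence (HTRF) and converted via a standard curve. EC50 calculated from cAMP versus compound concentration.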

Setting [1] is: CHO-K1 cells stably expressing human SSTR2, NKH477-stimulated cAMP, read-out: EC50 (inhibition of cAMP activities via human SST2R).

pEC50: −log10 of the molar value. Like-named read-outs stand apart in the source and are kept apart here.

One may read the pEC50 as the negative decadic logarithm of the EC50, by convention in mol/L.

Sequence of human SSTR2 (P30874 whole entry): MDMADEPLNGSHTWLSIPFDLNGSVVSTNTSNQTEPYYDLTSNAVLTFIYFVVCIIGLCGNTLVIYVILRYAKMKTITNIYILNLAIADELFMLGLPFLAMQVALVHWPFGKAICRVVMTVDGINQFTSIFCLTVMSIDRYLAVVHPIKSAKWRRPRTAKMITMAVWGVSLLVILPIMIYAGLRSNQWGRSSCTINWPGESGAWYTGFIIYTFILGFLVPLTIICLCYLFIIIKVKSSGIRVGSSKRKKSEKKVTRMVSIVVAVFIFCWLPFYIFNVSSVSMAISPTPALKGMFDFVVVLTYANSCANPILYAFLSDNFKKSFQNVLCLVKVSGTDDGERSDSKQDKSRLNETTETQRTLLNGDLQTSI

For the compound `Cc1cc(F)cc(-c2cnc3ccc(-c4cc(F)cc(C#N)c4O)cc3c2N2CC(CN3CC[C@H](F)C3)C2)c1` [2-49, 5-fluoro-3-[3-(3-fluoro-5-methylphenyl)-4-(3-{[(3 S)-3-fluoropyrrolidin-1-yl]methyl}azetidin-1-yl)quinolin-6-yl]-2-hydroxybenzonitrile], the pEC50 under setting [1] was more than 8.00.
As to `Cc1cc(F)cc(-c2cnc3ccc(-c4cc(F)cc(C#N)c4O)cc3c2N2CC(CN3CCCCC3)C2)c1` [2-50, 5-fluoro-3-[3-(3-fluoro-5-methylphenyl)-4-[3-(piperidin-1-ylmethyl)azetidin-1-yl]quinolin-6-yl]-2-hydroxybenzonitrile], the pEC50 is 7.00 to 8.00.
The same measure, in the same setting: with `Cc1cc(F)cc(-c2cnc3ccc(-c4cc(F)cc(C#N)c4O)cc3c2N2CC(CNCC(C)O)C2)c1` (centres unmarked) [2-51, 5-fluoro-3-[3-(3-fluoro-5-methylphenyl)-4-(3-{[(2-hydroxypropyl)amino]methyl}azetidin-1-yl)quinolin-6-yl]-2-hydroxybenzonitrile] the figure was 7.00 to 8.00; with `CCCNCC1CN(c2c(-c3cc(C)cc(F)c3)cnc3ccc(-c4cc(F)c(O)c(F)c4)cc23)C1` [2-52, 2,6-difluoro-4-[3-(3-fluoro-5-methylphenyl)-4-{3-[(propylamino)methyl]azetidin-1-yl}quinolin-6-yl]phenol], 7.00 to 8.00.
On to `COCOc1c(C#N)cc(F)cc1-c1ccc2ncc(-c3cc(C)cc(F)c3)c(N3CC(CNCCCO)C3)c2c1` [2-53, 5-fluoro-3-[3-(3-fluoro-5-methylphenyl)-4-(3-{[(3-hydroxypropyl)amino]methyl}azetidin-1-yl)quinolin-6-yl]-2-(methoxymethoxy)benzonitrile], for which, under setting [1], the pEC50 is more than 8.00.
Same read-out and setting: next, `Cc1cc(F)cc(-c2cnc3ccc(-c4cc(F)cc(C#N)c4O)cc3c2N2CC(CNCCCO)C2)c1` [2-54, 5-fluoro-3-[3-(3-fluoro-5-methylphenyl)-4-(3-{[(3-hydroxypropyl)amino]methyl}azetidin-1-yl)quinolin-6-yl]-2-hydroxybenzonitrile]: more than 8.00; `CCCNCC1CN(c2c(-c3cc(C)cc(F)c3)cnc3ccc(-c4cc(F)c5[nH]c(=O)[nH]c5c4)cc23)C1` [2-55, 4-fluoro-6-[3-(3-fluoro-5-methylphenyl)-4-{3-[(propylamino)methyl]azetidin-1-yl}quinolin-6-yl]-2,3-dihydro-1H-1,3-benzodiazol-2-one]: more than 8.00.
`N#Cc1cccc(-c2ccc3ncc(-c4cc(F)cc(F)c4)c(N4CCC(N)CC4)c3c2)c1OCC(=O)O` [2-56, 2-{2-[4-(4-aminopiperidin-1-yl)-3-(3,5-difluorophenyl)quinolin-6-yl]-6-cyanophenoxy}acetic acid] had a pEC50 of 7.00 to 8.00.
Same read-out and setting: next, `N#Cc1cccc(-c2ccc3ncc(-c4cc(F)cc(F)c4)c(N4CCC(N)CC4)c3c2)c1OCCCC(=O)O` [2-57, 4-{2-[4-(4-aminopiperidin-1-yl)-3-(3,5-difluorophenyl)quinolin-6-yl]-6-cyanophenoxy}butanoic acid]: 7.00 to 8.00.
As for `N#Cc1cccc(-c2ccc3ncc(-c4cc(F)cc(F)c4)c(N4CC[C@@H](N)[C@H](F)C4)c3c2)c1O` [2-59, 3-{4-[(3R,4R)-4-amino-3-fluoropiperidin-1-yl]-3-(3,5-difluorophenyl)quinolin-6-yl}-2-hydroxybenzonitrile], the pEC50 under setting [1] was more than 8.00.
As to `CO[C@H]1CN(c2c(-c3cc(F)cc(F)c3)cnc3ccc(-c4cccc(C#N)c4O)cc23)CC[C@H]1N` [2-61, 3-{4-[(3S,4R)-4-amino-3-methoxypiperidin-1-yl]-3-(3,5-difluorophenyl)quinolin-6-yl}-2-hydroxybenzonitrile], the pEC50 is 7.00 to 8.00.
As for `COCOc1c(C#N)cccc1-c1ccc2ncc(-c3cc(F)cc(F)c3)c(N3CC[C@H](N)[C@H](OC)C3)c2c1` [2-62, 3-{4-[(3R,4S)-4-amino-3-methoxypiperidin-1-yl]-3-(3,5-difluorophenyl)quinolin-6-yl}-2-(methoxymethoxy)benzonitrile], the pEC50 under setting [1] was more than 8.00.
Same read-out and setting: with `CC(=O)OCCOc1c(C#N)cccc1-c1ccc2ncc(-c3cc(F)cc(F)c3)c(N3CCC(N)CC3)c2c1` [2-64, 2-{2-[4-(4-aminopiperidin-1-yl)-3-(3,5-difluorophenyl)quinolin-6-yl]-6-cyanophenoxy}ethyl acetate] the figure was more than 8.00.
On the same count and under the same terms, with `N#Cc1cccc(-c2ccc3ncc(-c4cc(F)cc(F)c4)c(N4CCC(N)CC4)c3c2)c1OCCO` [2-65, 3-[4-(4-aminopiperidin-1-yl)-3-(3,5-difluorophenyl)quinolin-6-yl]-2-(2-hydroxyethoxy)benzonitrile] the figure was more than 8.00.
Regarding `CO[C@@H]1CN(c2c(-c3cc(F)cc(F)c3)cnc3ccc(-c4cccc(C#N)c4O)cc23)CC[C@@H]1N` [2-66, 3-{4-[(3R,4S)-4-amino-3-methoxypiperidin-1-yl]-3-(3,5-difluorophenyl)quinolin-6-yl}-2-hydroxybenzonitrile], the pEC50 was 7.00 to 8.00.
Consider `NC(=O)c1cccc(-c2ccc3ncc(-c4cc(F)cc(F)c4)c(N4CCC(N)CC4)c3c2)c1OC(CO)CO` [2-67, 3-[4-(4-aminopiperidin-1-yl)-3-(3,5-difluorophenyl)quinolin-6-yl]-2-[(1,3-dihydroxypropan-2-yl)oxy]benzamide], for which the pEC50 under setting [1] was more than 8.00.
With `N#Cc1cccc(-c2ccc3ncc(-c4cc(F)cc(OC5COC5)c4)c(N4CCC(N)CC4)c3c2)c1O` [2-69, 3-[4-(4-aminopiperidin-1-yl)-3-[3-fluoro-5-(oxetan-3-yloxy)phenyl]quinolin-6-yl]-2-hydroxybenzonitrile], the negative logarithm of the EC50 (pEC50) was 7.00 to 8.00.
Still for that read-out and setting: next, `CO/N=C/c1cc(F)cc(-c2cnc3ccc(-c4cccc(C#N)c4O)cc3c2N2CCC(N)CC2)c1` [2-70, 3-[4-(4-aminopiperidin-1-yl)-3-{3-fluoro-5-[(1E)-(methoxyimino)methyl]phenyl}quinolin-6-yl]-2-hydroxybenzonitrile]: 7.00 to 8.00; `N#Cc1cccc(-c2ccc3ncc(-c4cc(F)cc(CN5CC(F)(F)C5)c4)c(N4CCC(N)CC4)c3c2)c1O` [2-71, 3-[4-(4-aminopiperidin-1-yl)-3-{3-[(3,3-difluoroazetidin-1-yl)methyl]-5-fluorophenyl}quinolin-6-yl]-2-hydroxybenzonitrile]: 6.00 to 7.00.
Consider `COCCOc1c(C#N)cccc1-c1ccc2ncc(-c3cc(F)cc(F)c3)c(N3CCC(N)CC3)c2c1` [2-72, 3-[4-(4-aminopiperidin-1-yl)-3-(3,5-difluorophenyl)quinolin-6-yl]-2-(2-methoxyethoxy)benzonitrile], for which the pEC50 under setting [1] was more than 8.00.
Take `N#Cc1cccc(-c2ccc3ncc(-c4cc(F)cc(F)c4)c(N4CCC(N)CC4)c3c2)c1OC1COC1` [2-73, 3-[4-(4-aminopiperidin-1-yl)-3-(3,5-difluorophenyl)quinolin-6-yl]-2-(oxetan-3-yloxy)benzonitrile]: the negative-log EC50 (pEC50) was 7.00 to 8.00.
The same measure, in the same setting: next, `NC1CCN(c2c(-c3cc(F)cc(F)c3)cnc3ccc(-c4cncc(F)c4OC4COC4)cc23)CC1` [2-74, 1-[3-(3,5-difluorophenyl)-6-[5-fluoro-4-(oxetan-3-yloxy)pyridin-3-yl]quinolin-4-yl]piperidin-4-amine]: 6.00 to 7.00.
With `N#Cc1cnc(N2CCC2)c(-c2ccc3ncc(-c4cc(F)cc(F)c4)c(N4CCC(N)CC4)c3c2)c1` [2-75, 5-[4-(4-aminopiperidin-1-yl)-3-(3,5-difluorophenyl)quinolin-6-yl]-6-(azetidin-1-yl)pyridine-3-carbonitrile], under setting [1], the pEC50 was more than 8.00.
Compound `NC(=O)c1cnc(N2CCC2)c(-c2ccc3ncc(-c4cc(F)cc(F)c4)c(N4CCC(N)CC4)c3c2)c1` [2-76, 5-[4-(4-aminopiperidin-1-yl)-3-(3,5-difluorophenyl)quinolin-6-yl]-6-(azetidin-1-yl)pyridine-3-carboxamide] gave a pEC50 of 6.00 to 7.00.
Regarding `N#Cc1cccc(-c2ccc3ncc(-c4cc(F)cc(F)c4)c(N4CCC(N)CC4)c3c2)c1N` [2-77, 2-amino-3-[4-(4-aminopiperidin-1-yl)-3-(3,5-difluorophenyl)quinolin-6-yl]benzonitrile], under setting [1], the negative-log EC50 (pEC50) is more than 8.00.
Turning to `COCOc1c(C#N)cccc1-c1ccc2ncc(-c3cc(F)cc(F)c3)c(N3CCC(N)CC3)c2c1` [2-78, 3-[4-(4-aminopiperidin-1-yl)-3-(3,5-difluorophenyl)quinolin-6-yl]-2-(methoxymethoxy)benzonitrile], under setting [1], the pEC50 is more than 8.00.
In turn, `CCON=Cc1cc(F)cc(-c2cnc3ccc(-c4cccc(C#N)c4O)cc3c2N2CCC(N)CC2)c1` [2-79, 3-[4-(4-aminopiperidin-1-yl)-3-{3-[(ethoxyimino)methyl]-5-fluorophenyl}quinolin-6-yl]-2-hydroxybenzonitrile] showed a pEC50 of 6.00 to 7.00.
`O=c1[nH]c2cc(-c3ccc4ncc(-c5cc(F)cc(F)c5)c(N5CC[C@H]6NCCO[C@@H]6C5)c4c3)cc(F)c2[nH]1` [2-80, trans-6-[3-(3,5-difluorophenyl)-4-{octahydro-1H-pyrido[3,4-b]morpholin-6-yl}quinolin-6-yl]-4-fluoro-2,3-dihydro-1H-1,3-benzodiazol-2-one]: the negative-log EC50 (pEC50) under setting [1] was more than 8.00.
In turn, `CO/N=C/c1cccc(-c2ccc3ncc(-c4cc(F)cc(F)c4)c(N4CCC(N)CC4)c3c2)c1O` [2-81, 2-[4-(4-aminopiperidin-1-yl)-3-(3,5-difluorophenyl)quinolin-6-yl]-6-methoxyiminomethyl-phenol] gave a pEC50 of more than 8.00.
Same read-out and setting: with `CC[C@H](N)C1CN(c2c(-c3cc(C)cc(F)c3)cnc3ccc(-c4cc(F)cc(C#N)c4O)cc23)C1` [2-82, 3-(4-{3-[(1S)-1-aminopropyl]azetidin-1-yl}-3-(3-fluoro-5-methylphenyl)quinolin-6-yl)-5-fluoro-2-hydroxybenzonitrile] the figure was 7.00 to 8.00.
As for `COC(=O)Nc1c(F)cc(F)cc1-c1ccc2ncc(-c3cc(F)cc(F)c3)c(N3CCC(N)CC3)c2c1` [2-83, methyl N-{2-[4-(4-aminopiperidin-1-yl)-3-(3,5-difluorophenyl)quinolin-6-yl]-4,6-difluorophenyl}carbamate], the pEC50 under setting [1] was more than 8.00.
On the same count and under the same terms, with `COCOc1c(C#N)cccc1-c1ccc2ncc(-c3cc(F)cc(F)c3)c(N3CC[C@@H](N)[C@H](OC)C3)c2c1` [2-84] the figure was more than 8.00.

The record behind these values is patent US10351547B2, “Somatostatin modulators and uses thereof” (priority 2016, dated 2019).
